Measured values reported in ChEMBL document CHEMBL5338795, “Novel Triazoles with Potent and Broad-Spectrum Antifungal Activity In Vitro and In Vivo” (J Med Chem, 2023).
Converted amounts (≈) assume the structure as drawn.

Experiments:
Type in all cases: functional
Candida albicans [1] = test: Antifungal activity against Candida albicans SC5314 assessed as reduction in fungal growth incubated for 24 hrs by CLSI based microdilution analysis
Candida albicans [2] = test: Antifungal activity against fluconazole-resistant Candida albicans 901 assessed as inhibition of fungal growth measured for 24 hrs by CLSI based microdilution analysis
Nakaseomyces glabratus = test: Antifungal activity against Candida glabrata ATCC 15126 assessed as reduction in fungal growth incubated for 24 hrs by CLSI based microdilution analysis
Candida parapsilosis = test: Antifungal activity against Candida parapsilosis ATCC 22019 assessed as reduction in fungal growth incubated for 24 hrs by CLSI based microdilution analysis; details: Lodderomyces parapsilosis
Candida tropicalis = test: Antifungal activity against Candida tropicalis ATCC 750 assessed as reduction in fungal growth incubated for 24 hrs by CLSI based microdilution analysis
Candida albicans [3] = test: Antifungal activity against fluconazole-resistant Candida albicans 102 assessed as inhibition of fungal growth measured for 24 hrs by CLSI based microdilution analysis
Candida albicans [4] = test: Antifungal activity against fluconazole-resistant Candida albicans 13 assessed as inhibition of fungal growth measured for 24 hrs by CLSI based microdilution analysis
[5] = test system: Meyerozyma guilliermondii; test: Antifungal activity against Meyerozyma guilliermondii ATCC 6260 assessed as reduction in fungal growth incubated for 24 hrs by CLSI based microdilution analysis
Aspergillus fumigatus = test: Antifungal activity against Aspergillus fumigatus CGMCC3 7795 assessed as reduction in fungal growth incubated for 48 hrs by CLSI based microdilution analysis
Candida albicans [6] = test: Antifungal activity against fluconazole-resistant Candida albicans 112869 assessed as inhibition of fungal growth measured for 24 hrs by CLSI based microdilution analysis
Candida albicans [7] = test: Antifungal activity against fluconazole-resistant Candida albicans 15 assessed as inhibition of fungal growth measured for 24 hrs by CLSI based microdilution analysis
Cryptococcus neoformans = test: Antifungal activity against Cryptococcus neoformans CGMCC3 1563 assessed as reduction in fungal growth incubated for 72 hrs by CLSI based microdilution analysis
Candida albicans [8] = test: Antifungal activity against fluconazole-resistant Candida albicans 24D assessed as inhibition of fungal growth measured for 24 hrs by CLSI based microdilution analysis

Structure (SMILES): O=S(=O)(c1ccc(Cl)cc1)N1CCN(CC(O)(Cn2cncn2)c2ccc(F)cc2F)CC1 (stereo not drawn)
- MIC80 (Candida albicans [1]): 0.125 mg/L (≈ 0.251 µM)

Structure (SMILES): O=S(=O)(c1ccc(F)cc1)N1CCN(CC(O)(Cn2cncn2)c2ccc(F)cc2F)CC1 (stereo not drawn)
- MIC80 (Candida albicans [1]): 0.125 mg/L (≈ 0.26 µM)

Structure (SMILES): OC(CN1CCN(CCn2ncc3cc(I)ccc32)CC1)(Cn1cncn1)c1ccc(F)cc1F (stereo not drawn)
- MIC80 (Candida albicans [1]): 0.062 mg/L (≈ 0.104 µM)

Structure (SMILES): OC(CN1CCN(CCCCCCCCCCn2ccc3cc(Br)ccc32)CC1)(Cn1cncn1)c1ccc(F)cc1F (stereo not drawn)
- MIC80 (Candida albicans [1]): 0.25 mg/L (≈ 0.38 µM)

Structure (SMILES): OC(CN1CCN(CCn2ccc3ccccc32)CC1)(Cn1cncn1)c1ccc(F)cc1F (stereo not drawn)
- MIC80 (Candida albicans [1]): 0.031 mg/L (≈ 0.0664 µM)

Structure (SMILES): OC(CN1CCN(CCCn2ccc3ccc(Cl)cc32)CC1)(Cn1cncn1)c1ccc(F)cc1F (stereo not drawn)
- MIC80 (Candida albicans [2]): 5 mg/L (≈ 9.71 µM)
- MIC80 (Nakaseomyces glabratus): 0.312 mg/L (≈ 0.606 µM)
- MIC80 (Candida parapsilosis): 0.125 mg/L (≈ 0.243 µM)
- MIC80 (Candida tropicalis): 0.625 mg/L (≈ 1.21 µM)
- MIC80 (Candida albicans [3]): 0.062 mg/L (≈ 0.12 µM)
- MIC80 (Candida albicans [4]): 0.062 mg/L (≈ 0.12 µM)
- MIC80 [5]: 0.125 mg/L (≈ 0.243 µM)
- MIC80 (Aspergillus fumigatus): 5 mg/L (≈ 9.71 µM)
- MIC80 (Candida albicans [1]): 0.062 mg/L (≈ 0.12 µM)
- MIC80 (Candida albicans [6]): 0.25 mg/L (≈ 0.485 µM)
- MIC80 (Candida albicans [7]): 2.5 mg/L (≈ 4.85 µM)
- MIC80 (Cryptococcus neoformans): 0.031 mg/L (≈ 0.0602 µM)
- MIC80 (Candida albicans [8]): 0.062 mg/L (≈ 0.12 µM)

Structure (SMILES): CN1CCN(CC(O)(Cn2cncn2)c2ccc(F)cc2F)CC1 (stereo not drawn)
- MIC80 (Candida albicans [1]): 25 mg/L (≈ 74.1 µM)

Structure (SMILES): OC(CN1CCN(CCCCCCn2ccc3ccc(F)cc32)CC1)(Cn1cncn1)c1ccc(F)cc1F (stereo not drawn)
- MIC80 (Candida albicans [1]): 0.125 mg/L (≈ 0.231 µM)

Structure (SMILES): OC(CN1CCN(CCn2ccc3cc(Cl)c(Cl)cc32)CC1)(Cn1cncn1)c1ccc(F)cc1F (stereo not drawn)
- MIC80 (Candida albicans [2]): 2.5 mg/L (≈ 4.67 µM)
- MIC80 (Nakaseomyces glabratus): 0.312 mg/L (≈ 0.583 µM)
- MIC80 (Candida parapsilosis): 0.125 mg/L (≈ 0.233 µM)
- MIC80 (Candida tropicalis): 0.312 mg/L (≈ 0.583 µM)
- MIC80 (Candida albicans [3]): 0.062 mg/L (≈ 0.116 µM)
- MIC80 (Candida albicans [4]): 0.062 mg/L (≈ 0.116 µM)
- MIC80 [5]: 0.125 mg/L (≈ 0.233 µM)
- MIC80 (Aspergillus fumigatus): 5 mg/L (≈ 9.34 µM)
- MIC80 (Candida albicans [1]): 0.031 mg/L (≈ 0.0579 µM)
- MIC80 (Candida albicans [6]): 0.25 mg/L (≈ 0.467 µM)
- MIC80 (Candida albicans [7]): 0.625 mg/L (≈ 1.17 µM)
- MIC80 (Cryptococcus neoformans): 0.062 mg/L (≈ 0.116 µM)
- MIC80 (Candida albicans [8]): 0.062 mg/L (≈ 0.116 µM)

Structure (SMILES): OC(CN1CCN(CCCCCn2ccc3ccc(F)cc32)CC1)(Cn1cncn1)c1ccc(F)cc1F (stereo not drawn)
- MIC80 (Candida albicans [1]): 0.125 mg/L (≈ 0.237 µM)

Structure (SMILES): O=C(c1ccc2c(c1)OCO2)N1CCN(CC(O)(Cn2cncn2)c2ccc(F)cc2F)CC1 (stereo not drawn)
- MIC80 (Candida albicans [1]): 0.25 mg/L (≈ 0.53 µM)

Structure (SMILES): Cc1ccc2c(ccn2CCCN2CCN(CC(O)(Cn3cncn3)c3ccc(F)cc3F)CC2)c1 (stereo not drawn)
- MIC80 (Candida albicans [2]): 5 mg/L (≈ 10.1 µM)
- MIC80 (Nakaseomyces glabratus): 0.625 mg/L (≈ 1.26 µM)
- MIC80 (Candida parapsilosis): 0.125 mg/L (≈ 0.253 µM)
- MIC80 (Candida tropicalis): 0.625 mg/L (≈ 1.26 µM)
- MIC80 (Candida albicans [3]): 0.062 mg/L (≈ 0.125 µM)
- MIC80 (Candida albicans [4]): 0.062 mg/L (≈ 0.125 µM)
- MIC80 [5]: 0.125 mg/L (≈ 0.253 µM)
- MIC80 (Aspergillus fumigatus): 5 mg/L (≈ 10.1 µM)
- MIC80 (Candida albicans [1]): 0.062 mg/L (≈ 0.125 µM)
- MIC80 (Candida albicans [6]): 0.25 mg/L (≈ 0.505 µM)
- MIC80 (Candida albicans [7]): 2.5 mg/L (≈ 5.05 µM)
- MIC80 (Cryptococcus neoformans): 0.062 mg/L (≈ 0.125 µM)
- MIC80 (Candida albicans [8]): 0.125 mg/L (≈ 0.253 µM)

Structure (SMILES): O=C(c1ccc2ccccc2c1)N1CCN(CC(O)(Cn2cncn2)c2ccc(F)cc2F)CC1 (stereo not drawn)
- MIC80 (Candida albicans [1]): 0.062 mg/L (≈ 0.13 µM)

Structure (SMILES): OC(CN1CCN(CCCCn2ccc3cc(Br)ccc32)CC1)(Cn1cncn1)c1ccc(F)cc1F (stereo not drawn)
- MIC80 (Candida albicans [2]): 2.5 mg/L (≈ 4.36 µM)
- MIC80 (Nakaseomyces glabratus): 0.312 mg/L (≈ 0.544 µM)
- MIC80 (Candida parapsilosis): 0.062 mg/L (≈ 0.108 µM)
- MIC80 (Candida tropicalis): 0.312 mg/L (≈ 0.544 µM)
- MIC80 (Candida albicans [3]): 0.062 mg/L (≈ 0.108 µM)
- MIC80 (Candida albicans [4]): 0.062 mg/L (≈ 0.108 µM)
- MIC80 [5]: 0.125 mg/L (≈ 0.218 µM)
- MIC80 (Aspergillus fumigatus): 1.25 mg/L (≈ 2.18 µM)
- MIC80 (Candida albicans [1]): 0.062 mg/L (≈ 0.108 µM)
- MIC80 (Candida albicans [6]): 0.25 mg/L (≈ 0.436 µM)
- MIC80 (Candida albicans [7]): 1.25 mg/L (≈ 2.18 µM)
- MIC80 (Cryptococcus neoformans): 0.031 mg/L (≈ 0.0541 µM)
- MIC80 (Candida albicans [8]): 0.125 mg/L (≈ 0.218 µM)

Structure (SMILES): OC(CN1CCN(CCCCCn2ccc3cc(Br)ccc32)CC1)(Cn1cncn1)c1ccc(F)cc1F (stereo not drawn)
- MIC80 (Candida albicans [1]): 0.125 mg/L (≈ 0.213 µM)

Structure (SMILES): O[C@@](CN1CCN(CCn2ncc3ccccc32)CC1)(Cn1cncn1)c1ccc(F)cc1F
- MIC80 (Candida albicans [1]): 0.031 mg/L (≈ 0.0663 µM)

Structure (SMILES): OC(CN1CCN(CCn2ccc3cccnc32)CC1)(Cn1cncn1)c1ccc(F)cc1F (stereo not drawn)
- MIC80 (Candida albicans [1]): 0.062 mg/L (≈ 0.133 µM)

Structure (SMILES): Cc1ccc2c(c1)C(=O)C(=O)N2CCN1CCN(CC(O)(Cn2cncn2)c2ccc(F)cc2F)CC1 (stereo not drawn)
- MIC80 (Candida albicans [1]): 0.125 mg/L (≈ 0.245 µM)

Structure (SMILES): OC(CN1CCN(CCn2ccc3cc(Br)cnc32)CC1)(Cn1cncn1)c1ccc(F)cc1F (stereo not drawn)
- MIC80 (Candida albicans [1]): 0.062 mg/L (≈ 0.113 µM)

Structure (SMILES): O=C(c1cc2ccccc2oc1=O)N1CCN(CC(O)(Cn2cncn2)c2ccc(F)cc2F)CC1 (stereo not drawn)
- MIC80 (Candida albicans [1]): 0.062 mg/L (≈ 0.125 µM)

Structure (SMILES): OC(CN1CCN(CCc2cccc3ccccc23)CC1)(Cn1cncn1)c1ccc(F)cc1F (stereo not drawn)
- MIC80 (Candida albicans [1]): 0.25 mg/L (≈ 0.523 µM)

Structure (SMILES): OC(CN1CCN(CCc2ccccc2)CC1)(Cn1cncn1)c1ccc(F)cc1F (stereo not drawn)
- MIC80 (Candida albicans [1]): 0.125 mg/L (≈ 0.292 µM)

Structure (SMILES): O=C(c1cc2cc(F)ccc2oc1=O)N1CCN(CC(O)(Cn2cncn2)c2ccc(F)cc2F)CC1 (stereo not drawn)
- MIC80 (Candida albicans [1]): 0.25 mg/L (≈ 0.487 µM)

Structure (SMILES): O=[N+]([O-])c1ccc2c(ccn2CCN2CCN(CC(O)(Cn3cncn3)c3ccc(F)cc3F)CC2)c1 (stereo not drawn)
- MIC80 (Candida albicans [2]): 1.25 mg/L (≈ 2.44 µM)
- MIC80 (Nakaseomyces glabratus): 0.312 mg/L (≈ 0.61 µM)
- MIC80 (Candida parapsilosis): 0.062 mg/L (≈ 0.121 µM)
- MIC80 (Candida tropicalis): 0.312 mg/L (≈ 0.61 µM)
- MIC80 (Candida albicans [3]): 0.031 mg/L (≈ 0.0606 µM)
- MIC80 (Candida albicans [4]): 0.062 mg/L (≈ 0.121 µM)
- MIC80 [5]: 0.062 mg/L (≈ 0.121 µM)
- MIC80 (Aspergillus fumigatus): 1.25 mg/L (≈ 2.44 µM)
- MIC80 (Candida albicans [1]): 0.031 mg/L (≈ 0.0606 µM)
- MIC80 (Candida albicans [6]): 0.062 mg/L (≈ 0.121 µM)
- MIC80 (Candida albicans [7]): 1.25 mg/L (≈ 2.44 µM)
- MIC80 (Cryptococcus neoformans): 0.031 mg/L (≈ 0.0606 µM)
- MIC80 (Candida albicans [8]): 0.031 mg/L (≈ 0.0606 µM)

Structure (SMILES): O=C(c1ccc2ncccc2c1)N1CCN(CC(O)(Cn2cncn2)c2ccc(F)cc2F)CC1 (stereo not drawn)
- MIC80 (Candida albicans [1]): 0.125 mg/L (≈ 0.261 µM)

Structure (SMILES): COc1ccc(S(=O)(=O)N2CCN(CC(O)(Cn3cncn3)c3ccc(F)cc3F)CC2)cc1 (stereo not drawn)
- MIC80 (Candida albicans [1]): 0.25 mg/L (≈ 0.507 µM)

Structure (SMILES): COc1ccc2c(ccn2CCCCCN2CCN(CC(O)(Cn3cncn3)c3ccc(F)cc3F)CC2)c1 (stereo not drawn)
- MIC80 (Candida albicans [1]): 0.125 mg/L (≈ 0.232 µM)

Structure (SMILES): O[C@](CN1CCN(CCn2ccc3cc(Br)ccc32)CC1)(Cn1cncn1)c1ccc(F)cc1F
- MIC80 (Candida albicans [1]): 25 mg/L (≈ 45.8 µM)
